PubChem BioAssay AID256 (DTP/NCI, 2004)
Several values for one entry are separate records, joined by “and”; a condition that tells them apart may be missing. Equal values may be shown once. Toxic doses and inconclusive results are not listed. The calls were made as follows: active = survival T/C of 150% or more; inactive = T/C below 125% in these data. Residues, ends and D or L forms follow the SMILES beside them. *: point of attachment. Boc = CC(C)(C)OC(=O)*; NHNH2 = NN*

Tested on: CD2F1 mice, L1210 leukemia ip, survival T/C
Experiment: NCI In Vivo Anticancer Drug Screen. Data for tumor model L1210 Leukemia (intraperitoneal) in CD2F1 (CDF1) mice
Settings: higher = longer survival
Summary of the method: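 Transplantable tumor in mice; compound-treated vs vehicle-treated groups. Read-out = treated/control ratio of the measured endpoint.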

[1] = endpoint: mean survival time, dose: 100.0 mg/kg/injection, schedule: Q04DX003 (ip), vehicle: saline with Tween-80
[2] = endpoint: mean survival time, dose: 100.0 mg/kg/injection, schedule: Q04DX002 (ip), vehicle: saline with Tween-80
[3] = endpoint: mean survival time, dose: 200.0 mg/kg/injection, schedule: Q04DX002 (ip), vehicle: saline with Tween-80
[4] = endpoint: mean survival time, dose: 100.0 mg/kg/injection, schedule: Q01DX009 (ip), vehicle: saline with Tween-80
[5] = endpoint: mean survival time, dose: 200.0 mg/kg/injection, schedule: Q04DX003 (ip), vehicle: saline with Tween-80
[6] = endpoint: mean survival time, dose: 400.0 mg/kg/injection, schedule: Q04DX003 (ip), vehicle: saline with Tween-80
[7] = endpoint: mean survival time, dose: 100.0 mg/kg/injection, schedule: Q04DX003 (ip), vehicle: Klucel (hydroxypropylcellulose) (HPC)
[8] = endpoint: mean survival time, dose: 200.0 mg/kg/injection, schedule: Q04DX003 (ip), vehicle: Klucel (hydroxypropylcellulose) (HPC)
[9] = endpoint: mean survival time, dose: 400.0 mg/kg/injection, schedule: Q04DX003 (ip), vehicle: Klucel (hydroxypropylcellulose) (HPC)
[10] = endpoint: mean survival time, dose: 200.0 mg/kg/injection, schedule: Q01DX001 (ip), vehicle: saline

Measured: T/C

COC(=O)/C(=C1/OC(=O)C(c2ccccc2)=C1O)c1ccccc1
inactive: endpoint: mean survival time, dose: 25.0 mg/kg/injection, schedule: Q04DX003 (ip), vehicle: saline with Tween-80 91 % of control | endpoint: mean survival time, dose: 50.0 mg/kg/injection, schedule: Q04DX003 (ip), vehicle: saline with Tween-80 100 % of control | [1] 105 % of control

O=C(Nc1cccc(Cl)c1)C(c1ccccc1)c1ccccc1
inactive: [2] 95 % of control | [3] 87 % of control | endpoint: mean survival time, dose: 400.0 mg/kg/injection, schedule: Q04DX002 (ip), vehicle: saline with Tween-80 91 % of control

O=C1CCNC(=O)N1
inactive: [4] 93 % of control | [1] 106 % of control | endpoint: mean survival time, dose: 200.0 mg/kg/injection, schedule: Q01DX009 (ip), vehicle: saline with Tween-80 98 % of control | [5] 101 % of control | endpoint: mean survival time, dose: 400.0 mg/kg/injection, schedule: Q01DX009 (ip), vehicle: saline with Tween-80 93 % of control | [6] 95 % of control

CCCS(=O)(=O)CS(=O)(=O)CC
inactive: endpoint: mean survival time, dose: 75.0 mg/kg/injection, schedule: Q01DX001 (ip), vehicle: saline with Tween-80 100 % of control | endpoint: mean survival time, dose: 150.0 mg/kg/injection, schedule: Q01DX001 (ip), vehicle: saline with Tween-80 92 % of control | endpoint: mean survival time, dose: 300.0 mg/kg/injection, schedule: Q01DX001 (ip), vehicle: saline with Tween-80 90 % of control

CCOC1=C(C#N)CC2(CC1)c1ccccc1-c1ccccc12
inactive: [7] 96 % of control | [8] 102 % of control | [9] 101 % of control

N#C[CH2][Sn]([I])([c]1ccccc1)[c]1ccccc1
inactive: endpoint: mean survival time, dose: 0.39 mg/kg/injection, schedule: Q01DX009 (ip), vehicle: saline 103 % of control | endpoint: mean survival time, dose: 0.78 mg/kg/injection, schedule: Q01DX009 (ip), vehicle: saline 100 % of control

COc1ccc(CC(N)C(=O)O)cc1N(CCCl)CCCl (centres undefined)
inactive: endpoint: mean survival time, dose: 3.2 mg/kg/injection, schedule: Q01DX001 (ip), vehicle: carboxymethylcellulose (CMC) 122 % of control

CC(C)(C)[CH2][Sn]([Cl])([CH2]C(C)(C)C)[CH2]C(C)(C)C
inactive: endpoint: mean survival time, dose: 3.13 mg/kg/injection, schedule: Q04DX002 (ip), vehicle: saline with Tween-80 97 % of control | endpoint: mean survival time, dose: 6.25 mg/kg/injection, schedule: Q04DX002 (ip), vehicle: saline with Tween-80 101 % of control | endpoint: mean survival time, dose: 12.5 mg/kg/injection, schedule: Q04DX002 (ip), vehicle: saline with Tween-80 103 % of control

Clc1cc(Cl)c(CBr)cc1CBr
inactive: endpoint: mean survival time, dose: 12.5 mg/kg/injection, schedule: Q01DX009 (ip), vehicle: saline with Tween-80 91 % of control | [5] 90 % of control

CCCC(C(=O)O)C1=CCCC1 (centres undefined)
inactive: endpoint: mean survival time, dose: 25.0 mg/kg/injection, schedule: Q01DX009 (ip), vehicle: saline with Tween-80 102 % of control | endpoint: mean survival time, dose: 50.0 mg/kg/injection, schedule: Q01DX009 (ip), vehicle: saline with Tween-80 102 % of control | [4] 100 % of control

O=C(CCO)CC(=O)CCc1ccccc1Cl
inactive: [1] 97 % of control | [5] 103 % of control | [6] 91 % of control

CC(C)CCNC(=O)NS(=O)(=O)c1ccc(N)cc1
inactive: [1] 102 % of control | [5] 102 % of control | [6] 98 % of control

O=P1(N(CCCl)CCCl)OC(c2ccccc2)=CCN1c1ccccc1 (centres undefined)
inactive: endpoint: mean survival time, dose: 31.25 mg/kg/injection, schedule: Q01DX001 (ip), vehicle: saline 103 % of control | endpoint: mean survival time, dose: 62.5 mg/kg/injection, schedule: Q01DX001 (ip), vehicle: saline 97 % of control | endpoint: mean survival time, dose: 125.0 mg/kg/injection, schedule: Q01DX001 (ip), vehicle: saline 100 % of control | endpoint: mean survival time, dose: 250.0 mg/kg/injection, schedule: Q01DX001 (ip), vehicle: saline 100 % of control | endpoint: mean survival time, dose: 500.0 mg/kg/injection, schedule: Q01DX001 (ip), vehicle: saline 103 % of control

O=C(COc1cc(Cl)c(Cl)cc1Cl)OCCOc1cc(Cl)c(Cl)cc1Cl
inactive: endpoint: mean survival time, dose: 15.0 mg/kg/injection, schedule: Q04DX003 (ip), vehicle: saline 93 % of control | endpoint: mean survival time, dose: 30.0 mg/kg/injection, schedule: Q04DX003 (ip), vehicle: saline 89 % of control | [10] 86 % of control

C=CC[n+]1ccccc1/C=C\c1ccc(N(C)C)cc1
inactive: endpoint: mean survival time, dose: 75.0 mg/kg/injection, schedule: Q01DX001 (ip), vehicle: saline 118 % of control

C=CN1CCCC1=O (tested in a mixture with another compound)
inactive: [1] 95 % of control | [5] 91 % of control | [6] 98 % of control

c1ccc(N/N=C(/C[n+]2cc3ccccc3c3ccccc32)c2ccccc2)cc1
inactive: [7] 94 % of control | [8] 106 % of control | [9] 109 % of control

CN(CCC#N)c1ccc(C(=C2C=CC(=Nc3ccccc3)c3ccccc32)c2ccc(N(C)CCC#N)cc2)cc1
inactive: [2] 97 % of control | [3] 101 % of control

COc1nc(=O)n(C2C=CC(=O)O2)cc1F (centres undefined)
inactive: endpoint: median survival time, dose: 6.25 mg/kg/injection, schedule: Q01DX009 (ip), vehicle: saline 98 % of control | endpoint: median survival time, dose: 12.5 mg/kg/injection, schedule: Q01DX009 (ip), vehicle: saline 100 % of control | endpoint: median survival time, dose: 25.0 mg/kg/injection, schedule: Q01DX009 (ip), vehicle: saline 108 % of control | endpoint: median survival time, dose: 50.0 mg/kg/injection, schedule: Q01DX009 (ip), vehicle: saline 108 % of control | endpoint: median survival time, dose: 100.0 mg/kg/injection, schedule: Q01DX009 (ip), vehicle: saline 110 % of control

COC(=O)CC1(O)C=CC(=O)C=C1
inactive: endpoint: mean survival time, dose: 0.75 mg/kg/injection, schedule: Q01DX009 (ip), vehicle: Klucel (hydroxypropylcellulose) (HPC) 104 % of control | endpoint: mean survival time, dose: 1.5 mg/kg/injection, schedule: Q01DX009 (ip), vehicle: Klucel (hydroxypropylcellulose) (HPC) 98 % of control | endpoint: mean survival time, dose: 3.0 mg/kg/injection, schedule: Q01DX009 (ip), vehicle: Klucel (hydroxypropylcellulose) (HPC) 95 % of control | endpoint: mean survival time, dose: 6.0 mg/kg/injection, schedule: Q01DX009 (ip), vehicle: Klucel (hydroxypropylcellulose) (HPC) 92 % of control | endpoint: mean survival time, dose: 12.0 mg/kg/injection, schedule: Q01DX009 (ip), vehicle: Klucel (hydroxypropylcellulose) (HPC) 95 % of control

CCCCCCCCC/C=C(\CCCCCCCCCC)c1ccccc1
inactive: endpoint: mean survival time, dose: 100.0 mg/kg/injection, schedule: Q01DX001 (ip), vehicle: saline 94 % of control | [10] 94 % of control | endpoint: mean survival time, dose: 400.0 mg/kg/injection, schedule: Q01DX001 (ip), vehicle: saline 100 % of control

O=S(=O)(O)SCC1NCCCN1
inactive: endpoint: mean survival time, dose: 12.5 mg/kg/injection, schedule: Q04DX002 (ip), vehicle: saline 108 % of control | endpoint: mean survival time, dose: 25.0 mg/kg/injection, schedule: Q04DX002 (ip), vehicle: saline 101 % of control | endpoint: mean survival time, dose: 50.0 mg/kg/injection, schedule: Q04DX002 (ip), vehicle: saline 101 % of control

CC(C)CC(NC(=O)C(Cc1c[nH]c2ccccc12)NC(=O)OC(C)(C)C)C(=O)NN (stereo not drawn) (Boc-Trp-Leu-NHNH2; configuration not given here)
inactive: endpoint: mean survival time, dose: 25.0 mg/kg/injection, schedule: Q01DX009 (ip), vehicle: saline 105 % of control | endpoint: mean survival time, dose: 50.0 mg/kg/injection, schedule: Q01DX009 (ip), vehicle: saline 106 % of control and 109 % of control | endpoint: mean survival time, dose: 100.0 mg/kg/injection, schedule: Q01DX009 (ip), vehicle: saline 117 % of control and 124 % of control | endpoint: mean survival time, dose: 200.0 mg/kg/injection, schedule: Q01DX009 (ip), vehicle: saline 117 % of control

CCCCOP(=O)(NCCOC)OCCCC
inactive: [1] 101 % of control | [5] 100 % of control | [6] 103 % of control

CCOC(=S)S
inactive: endpoint: mean survival time, dose: 100.0 mg/kg/injection, schedule: Q01DX009 (ip), vehicle: saline sonified 103 % of control | endpoint: mean survival time, dose: 100.0 mg/kg/injection, schedule: Q04DX003 (ip), vehicle: saline 96 % of control | endpoint: mean survival time, dose: 200.0 mg/kg/injection, schedule: Q01DX009 (ip), vehicle: saline sonified 97 % of control | endpoint: mean survival time, dose: 400.0 mg/kg/injection, schedule: Q04DX003 (ip), vehicle: saline 104 % of control
